Assay results from article PMC2174548 (The Journal of Cell Biology, 2000).
One block for each compound: values may come before it.

What was measured:
Type in all cases: cell-based
[1] = target: T1, P-glycoprotein (Pgp) (Homo sapiens, UniProt P08183); assay: fluorescence accumulation in PgpCFP-transfected cells
[2] = target: T1, P-glycoprotein (Pgp); assay: fluorescence accumulation in PgpGFP-transfected cells
[3] = target: T1, P-glycoprotein (Pgp); assay: protection from microtubule depolymerization in PgpGFP-transfected HeLa cells
[4] = target: T1, P-glycoprotein (Pgp); assay: cellular drug accumulation versus Pgp expression
[5] = target: T1, P-glycoprotein (Pgp); assay: protection from microtubule depolymerization in PgpGFP-transfected HeLa cells; remark: listed apart in the source

T1 sequence (P08183 whole entry): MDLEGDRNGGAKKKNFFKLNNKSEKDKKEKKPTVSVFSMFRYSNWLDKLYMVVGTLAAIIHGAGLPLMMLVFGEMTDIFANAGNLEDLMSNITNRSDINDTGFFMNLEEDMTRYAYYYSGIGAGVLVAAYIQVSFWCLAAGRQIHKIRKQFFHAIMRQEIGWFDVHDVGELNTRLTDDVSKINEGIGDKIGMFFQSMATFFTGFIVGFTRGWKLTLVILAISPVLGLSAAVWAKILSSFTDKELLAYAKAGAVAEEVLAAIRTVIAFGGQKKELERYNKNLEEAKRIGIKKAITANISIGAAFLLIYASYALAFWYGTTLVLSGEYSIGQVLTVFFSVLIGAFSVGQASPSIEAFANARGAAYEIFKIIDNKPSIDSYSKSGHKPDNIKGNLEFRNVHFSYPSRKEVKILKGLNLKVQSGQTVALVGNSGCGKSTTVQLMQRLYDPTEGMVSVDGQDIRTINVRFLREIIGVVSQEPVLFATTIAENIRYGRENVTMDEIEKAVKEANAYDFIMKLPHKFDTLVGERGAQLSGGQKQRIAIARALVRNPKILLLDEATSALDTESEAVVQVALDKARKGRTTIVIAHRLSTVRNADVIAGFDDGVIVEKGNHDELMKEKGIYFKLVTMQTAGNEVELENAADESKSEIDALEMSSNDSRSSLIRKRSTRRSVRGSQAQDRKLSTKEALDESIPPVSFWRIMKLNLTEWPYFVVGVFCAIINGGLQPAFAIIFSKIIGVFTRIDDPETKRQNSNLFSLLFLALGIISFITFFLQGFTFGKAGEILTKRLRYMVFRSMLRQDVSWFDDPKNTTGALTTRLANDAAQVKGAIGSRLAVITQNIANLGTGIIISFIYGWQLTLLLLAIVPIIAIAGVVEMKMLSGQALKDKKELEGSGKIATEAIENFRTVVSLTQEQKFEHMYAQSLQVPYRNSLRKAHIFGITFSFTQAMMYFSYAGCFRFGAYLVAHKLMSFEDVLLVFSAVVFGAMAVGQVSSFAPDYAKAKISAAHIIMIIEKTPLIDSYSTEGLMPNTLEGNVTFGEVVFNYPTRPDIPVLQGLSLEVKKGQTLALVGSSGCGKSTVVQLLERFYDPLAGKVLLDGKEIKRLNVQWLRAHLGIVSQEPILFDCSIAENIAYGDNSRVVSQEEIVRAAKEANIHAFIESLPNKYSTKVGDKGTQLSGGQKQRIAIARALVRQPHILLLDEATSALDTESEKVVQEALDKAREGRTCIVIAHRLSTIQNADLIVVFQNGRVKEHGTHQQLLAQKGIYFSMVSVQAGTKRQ

SMILES: COc1cc2c(c(OC)c1OC)-c1ccc(OC)c(=O)cc1[C@@H](NC(C)=O)CC2 [colchicine]
- Fold resistance [3]: 5–25 fold

SMILES: O=C1c2c(O)ccc(O)c2C(=O)c2c(NCCNCCO)ccc(NCCNCCO)c21 [mitoxantrone]
- cellular drug accumulation versus Pgp expression (data not shown) [4]: the level of Pgp expression was inversely related to the cellular accumulation of mitoxantrone

SMILES: CC[C@]1(O)C[C@H]2CN(CCc3c([nH]c4ccccc34)[C@@](C(=O)OC)(c3cc4c(cc3OC)N(C=O)[C@H]3[C@@](O)(C(=O)OC)[C@H](OC(C)=O)[C@]5(CC)C=CCN6CC[C@]43[C@@H]65)C2)C1 [vincristine]
- protection from microtubule depolymerization in PgpGFP-transfected HeLa cells (2) [5]: 25–125 fold

The next lines start with the values.

- Effects on fluorescence [1]: > 10 fold
SMILES: CC(=O)OCOC(=O)CN(CC(=O)OCOC(C)=O)Cc1cc2c(cc1OC(C)=O)Oc1cc(OC(C)=O)c(CN(CC(=O)OCOC(C)=O)CC(=O)OCOC(C)=O)cc1C21OC(=O)c2ccccc21 [Calcein AM]

- Effects on fluorescence [2]: > 10 fold
SMILES: CC(=O)OCOC(=O)CN(CC(=O)OCOC(C)=O)c1ccc(C)cc1OCCOc1cc2cc(-c3ncc(C(=O)OCOC(C)=O)o3)oc2cc1N(CC(=O)OCOC(C)=O)CC(=O)OCOC(C)=O [Fura-2 AM]
